Experimental findings from patent publication US12060333B2 (Hoffmann-La Roche Inc., priority 2021, dated 2024) are described below.

For the first assay, the target named is SARS-CoV-2 3CLpro (Severe acute respiratory syndrome coronavirus 2, UniProt P0DTD1). Description: biochemical. As to conditions: IC50 (μM), SARS-CoV-2 3CLPro assay.
`CC(C)C[C@H](NC(=O)c1cc2ccccc2[nH]1)C(=O)NN(CC1CCNC1=O)C(=O)CCl` (mixture of isomers) [Example 51, N-[(1S)-1-[[(2-Chloroacetyl)-[(2-oxo-pyrrolidin-3-yl)methyl]amino]carbamoyl]-3-methyl-butyl]-1H-indole-2-carboxamide] showed an IC50 of 0.004 µM.

For `COc1cccc2[nH]c(C(=O)NC(CC(C)C)C(=O)NN(CCC(N)=O)C(=O)[C@@H](F)Cl)cc12` (mixture of isomers) [Example 54-A, 4-Methoxy-N-[rac-(1S)-1-[[(3-amino-3-oxo-propyl)-[(2S)-2-chloro-2-fluoro-acetyl]amino]carbamoyl]-3-methyl-butyl]-1H-indole-2-carboxamide], 0.004 µM corresponded to half-maximal inhibition (IC50).

`CC(C)C[C@H](NC(=O)c1cc2cc(F)ccc2[nH]1)C(=O)NN(CCC(N)=O)C(=O)[C@@H](F)Cl` (racemic) [Example 57-A, 5-fluoro-N-[rac-(1S)-1-[[(3-amino-3-oxo-propyl)-[rac-(2S)-2-chloro-2-fluoro-acetyl]amino]carbamoyl]-3-methyl-butyl]-1H-indole-2-carboxamide] came in with an IC50 of 0.067 µM.

`CC(C)C[C@H](NC(=O)c1cc2cc(F)ccc2[nH]1)C(=O)NN(CCC(N)=O)C(=O)[C@H](F)Cl` (racemic) [Example 57-B, 5-fluoro-N-[rac-(1S)-1-[[(3-amino-3-oxo-propyl)-[rac-(2R)-2-chloro-2-fluoro-acetyl]amino]carbamoyl]-3-methyl-butyl]-1H-indole-2-carboxamide]: it took 0.01 µM to reach half-maximal inhibition (IC50).

`CC(C)C[C@H](NC(=O)c1cc2cc(Cl)ccc2[nH]1)C(=O)NN(CCC(N)=O)C(=O)[C@@H](F)Cl` (racemic) [Example 58-A, 5-Chloro-N-[rac-(1S)-1-[[(3-amino-3-oxo-propyl)-[rac-(2S)-2-chloro-2-fluoro-acetyl]amino]carbamoyl]-3-methyl-butyl]-1H-indole-2-carboxamide] gave an IC50 of 0.032 µM.

Take `CC(C)C[C@H](NC(=O)c1cc2cc(Cl)ccc2[nH]1)C(=O)NN(CCC(N)=O)C(=O)[C@H](F)Cl` (racemic) [Example 58-B, 5-chloro-N-[rac-(1S)-1-[[(3-amino-3-oxo-propyl)-[rac-(2R)-2-chloro-2-fluoro-acetyl]amino]carbamoyl]-3-methyl-butyl]-1H-indole-2-carboxamide]: it took 0.007 µM to reach half-maximal inhibition (IC50).

For the molecule `CC(C)C[C@H](NC(=O)c1nc2cc(Cl)ccc2[nH]1)C(=O)NN(CCC(N)=O)C(=O)[C@@H](F)Cl` (racemic) [Example 60-A, 5-chloro-N-[rac-(1S)-1-[[(3-amino-3-axo-propyl)-[rac-(2S)-2-chloro-2-fluoro-acetyl]amino]carbamoyl]-3-methyl-butyl]-1H-benzimidazole-2-carboxamide], half-maximal inhibition (IC50) was put at 0.008 µM.

`CC(C)C[C@H](NC(=O)c1nc2cc(Cl)ccc2[nH]1)C(=O)NN(CCC(N)=O)C(=O)[C@H](F)Cl` (racemic) [Example 60-B, 5-chloro-N-[rac-(1S)-1-[[(3-amino-3-oxo-propyl)-[rac-(2R)-2-chloro-2-fluoro-acetyl]amino]carbamoyl]-3-methyl-butyl]-1H-benzimidazole-2-carboxamide] returned an IC50 of 0.052 µM.

Take `NC(=O)CCN(NC(=O)[C@H](CC1CC1)NC(=O)c1cc2ccccc2[nH]1)C(=O)C(F)Cl` (mixture of isomers) [Example 62, N-[rac-(1S)-2-[2-(3-amino-3-oxo-propyl)-2-(2-chloro-2-fluoro-acetyl)hydrazino]-1-(cyclopropylmethyl)-2-axo-ethyl]-1H-indole-2-carboxamide]: the half-inhibitory concentration (IC50) turned out to be 0.017 µM.

`NC(=O)CCN(NC(=O)[C@H](CC1CCC1)NC(=O)c1nc2ccccc2[nH]1)C(=O)C(F)Cl` (mixture of isomers) [Example 66, N-[rac-(1S)-2-[2-(3-amino-3-oxo-propyl)-2-(2-chloro-2-fluoro-acetyl)hydrazino]-1-(cyclobutylmethyl)-2-axo-ethyl]-1H-benzimidazole-2-carboxamide]: the concentration for half-maximal inhibition (IC50) is 0.034 µM.

Consider `NC(=O)CCN(NC(=O)[C@H](CC12CC(C1)C2)NC(=O)c1nc2ccccc2[nH]1)C(=O)C(F)Cl` (mixture of isomers) [Example 67, N-[rac-(1S)-2-[2-(3-amino-3-oxo-propyl)-2-(2-chloro-2-fluoro-acetyl)hydrazino]-1-(1-bicyclo[1.1.1]pentanylmethyl)-2-axo-ethyl]-1H-benzimidazole-2-carboxamide], for which the IC50 was found to be 0.023 µM.

With `Cc1cc(C(=O)N[C@@H](CC2CCCCC2)C(=O)NN(CCC(N)=O)C(=O)C(F)Cl)no1` (mixture of isomers) [Example 74, 5-Methyl-N-[rac-(1S)-2-[2-(3-amino-3-oxo-propyl)-2-(2-chloro-2-fluoro-acetyl)hydrazino]-1-(cyclohexylmethyl)-2-axo-ethyl]isoxazole-3-carboxamide], the IC50 turned out to be 0.028 µM.

`Cc1cc(C(=O)N[C@@H](CC2CC2)C(=O)NN(CCC(N)=O)C(=O)C(F)Cl)no1` (mixture of isomers) [Example 75, 5-Methyl-N-[rac-(1S)-2-[2-(3-amino-3-oxo-propyl)-2-(2-chloro-2-fluoro-acetyl)hydrazino]-1-(cyclopropylmethyl)-2-axo-ethyl]isoxazole-3-carboxamide]: the midpoint of inhibition, the IC50, lay at 0.32 µM.

The molecule `NC(=O)CCN(NC(=O)[C@H](CC1CCC1)NC(=O)c1cnccn1)C(=O)C(F)Cl` (mixture of isomers) [Example 79, N-[rac-(1S)-2-[2-(3-amino-3-oxo-propyl)-2-(2-chloro-2-fluoro-acetyl)hydrazino]-1-(cyclobutylmethyl)-2-axo-ethyl]pyrazine-2-carboxamide] returned a half-maximal inhibitory concentration (IC50) of 0.15 µM.

`NC(=O)CCN(NC(=O)[C@H](CC1CCCCC1)NC(=O)c1cn2ccccc2n1)C(=O)C(F)Cl` (mixture of isomers) [Example 82, N-[rac-(1S)-2-[2-(3-amino-3-oxo-propyl)-2-(2-chloro-2-fluoro-acetyl)hydrazino]-1-(cyclohexylmethyl)-2-axo-ethyl]imidazo[1,2-a]pyridine-2-carboxamide] yielded a half-maximal inhibitory concentration (IC50) of 0.043 µM.

Consider `COc1cc2cc(C(=O)N[C@@H](CC(C)C)C(=O)NN(CCC(N)=O)C(=O)C(F)Cl)[nH]c2cn1` (mixture of isomers) [Example 89, 5-methoxy-N-[rac-(1S)-1-[[(3-amino-3-axo-propyl)-(2-chloro-2-fluoro-acetyl)amino]carbamoyl]-3-methyl-butyl]-1H-pyrrolo[2,3-c]pyridine-2-carboxamide], for which inhibition was half-maximal at 0.019 µM (IC50).

`CC(C)CC(NC(=O)c1cn2ccccc2n1)C(=O)NN(CCC(N)=O)C(=O)C(F)Cl` (racemic) [Example 95, N-[rac-(1S)-1-[[(3-amino-3-oxo-propyl)-(2-chloro-2-fluoro-acetyl)amino]carbamoyl]-3-methyl-butyl]imidazo[1,2-a]pyridine-2-carboxamide] displayed an IC50 of 0.65 µM.

In turn, `CC(C)C[C@H](NC(=O)c1ncc[nH]1)C(=O)NN(CCC(N)=O)C(=O)C(F)Cl` (mixture of isomers) [Example 96, N-[rac-(1S)-1-[[(3-amino-3-oxo-propyl)-(2-chloro-2-fluoro-acetyl)amino]carbamoyl]-3-methyl-butyl]-1H-imidazole-2-carboxamide] displayed a half-inhibitory concentration (IC50) of 0.66 µM.

On to `Cc1cc(C(=O)NC(CC(C)C)C(=O)NN(CCC(N)=O)C(=O)C(F)Cl)no1` (racemic) [Example 97, 5-Methyl-N-[rac-(1S)-1-[[(3-amino-3-oxo-propyl)-(2-chloro-2-fluoro-acetyl)amino]carbamoyl]-3-methyl-butyl]isoxazole-3-carboxamide], for which the IC50 came to 0.91 µM.

`NC(=O)CCN(NC(=O)[C@H](CC1CCCCC1)NC(=O)OCc1ccccc1)C(=O)[C@@H](F)Cl` (single isomer, unassigned) [Example 16-A] displayed an IC50 of 0.053 µM.

Take `NC(=O)CCN(NC(=O)[C@H](CC1CCCCC1)NC(=O)OCc1ccccc1)C(=O)[C@H](F)Cl` (single isomer, unassigned) [Example 16-B]: the concentration for half-maximal inhibition (IC50) is 0.002 µM.

In turn, `CC(C)C[C@H](NC(=O)OCc1ccccc1)C(=O)NN(CCC(N)=O)C(=O)[C@@H](F)Cl` (single isomer, unassigned) [Example 17-A] displayed a half-maximal inhibitory concentration (IC50) of 1.63 µM.

On to `CC(C)C[C@H](NC(=O)OCc1ccccc1)C(=O)NN(CCC(N)=O)C(=O)[C@H](F)Cl` (single isomer, unassigned) [Example 17-B], for which the midpoint of inhibition, the IC50, lay at 0.077 µM.

Turning to `CC(C)C[C@H](NC(=O)c1cc2ccccc2[nH]1)C(=O)NN(C[C@@H]1CCNC1=O)C(=O)CF` (single isomer, unassigned) [Example 38-A], the IC50 turned out to be 0.074 µM.

Molecule `CC(C)C[C@H](NC(=O)c1cc2ccccc2[nH]1)C(=O)NN(C[C@H]1CCNC1=O)C(=O)CF` (single isomer, unassigned) [Example 38-B] came in with an IC50 of 3.16 µM.

In the case of `CC(C)C[C@H](NC(=O)c1cc2ccccc2[nH]1)C(=O)NN(CCC(N)=O)C(=O)[C@@H](F)Cl` (single isomer, unassigned) [Example 41-A], 0.005 µM corresponded to half-maximal inhibition (IC50).

Take `CC(C)C[C@H](NC(=O)c1cc2ccccc2[nH]1)C(=O)NN(CCC(N)=O)C(=O)[C@H](F)Cl` (single isomer, unassigned) [Example 41-B]: the 50% inhibitory concentration (IC50) stood at 0.034 µM.

On to `CC(C)C[C@H](NC(=O)c1cc2c(Cl)cccc2[nH]1)C(=O)NN(CCC(N)=O)C(=O)[C@@H](F)Cl` (single isomer, unassigned) [Example 53-A], for which the IC50 turned out to be 0.014 µM.

For the molecule `CC(C)C[C@H](NC(=O)c1cc2c(Cl)cccc2[nH]1)C(=O)NN(CCC(N)=O)C(=O)[C@H](F)Cl` (single isomer, unassigned) [Example 53-B], the IC50 was found to be 0.025 µM.

Turning to `CC(C)C[C@H](NC(=O)c1nc2ccccc2[nH]1)C(=O)NN(CCC(N)=O)C(=O)[C@@H](F)Cl` (single isomer, unassigned) [Example 63-A], 0.043 µM corresponded to half-maximal inhibition (IC50).

In the case of `CC(C)C[C@H](NC(=O)c1nc2ccccc2[nH]1)C(=O)NN(CCC(N)=O)C(=O)[C@H](F)Cl` (single isomer, unassigned) [Example 63-B], the half-inhibitory concentration (IC50) stood at 0.007 µM.

The assay is the same for the next values; noted with them: read-out: IC50 (μM), SARS-CoV-2 3CLPro assay.
With `CC(C)C[C@H](NC(=O)c1cc2ccccn2n1)C(=O)NN(CCC(N)=O)C(=O)C(F)Cl` (mixture of isomers) [Example 90, N,N-[rac-(1S)-1-[[(3-amino-3-oxo-propyl)-(2-chloro-2-fluoro-acetyl)amino]carbamoyl]-3-methyl-butyl]pyrazolo[1,5-a]pyridine-2-carboxamide], the IC50 was found to be 0.073 µM.
